Patent US20240174671A1, “New 2,3-Dihydro-1H-pyrrolo[3,2-b]pyridine Derivatives as Sigma Ligands” (ACONDICIONAMIENTO TARRASENSE, priority 2021, published 2024)

Columns and labels:
human σ1 receptor = target: T1, human σ1 receptor (Homo sapiens, UniProt Q99720); test: Human σ1 receptor radioligand assay ([3H](+)-pentazocine); assay type: binding; settings: transfected HEK-293 membranes, 5 nM [3H](+)-pentazocine, 37° C., 120 minutes; read-out: Binding σ-[…] (binding to σ1-receptor expressed as Ki)
T1 construct: expressed in transfected cells; host or cells: HEK-293
T1 sequence (Q99720 whole entry): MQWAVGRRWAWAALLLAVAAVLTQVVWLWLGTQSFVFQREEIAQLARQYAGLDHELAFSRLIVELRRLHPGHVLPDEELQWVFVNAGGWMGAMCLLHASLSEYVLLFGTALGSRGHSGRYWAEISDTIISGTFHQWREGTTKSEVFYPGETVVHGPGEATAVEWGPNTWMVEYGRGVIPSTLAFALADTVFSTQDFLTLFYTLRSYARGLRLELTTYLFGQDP
Summary of the method: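 Binding used [3H](+)-pentazocine, 120 min at 37° C, with non-specific binding defined by 10 μM haloperidol. Bound radioligand was collected by filtration, washed with ice-cold 10 mM Tris-HCl pH 7.4 and counted by scintillation.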

human σ2/TMEM97 receptor = target: T2, human σ2/TMEM97 receptor (Homo sapiens, UniProt Q5BJF2); test: Binding assay to human σ2/TMEM97 receptor ([3H]-DTG); settings: transfected HEK-293 membranes, 10 nM [3H]-DTG, 25° C., 120 minutes; read-out: Binding σ-[…] (binding to σ2-receptor expressed as Ki)
T2 construct: expressed in transfected cells; host or cells: HEK-293
T2 sequence (Q5BJF2 whole entry): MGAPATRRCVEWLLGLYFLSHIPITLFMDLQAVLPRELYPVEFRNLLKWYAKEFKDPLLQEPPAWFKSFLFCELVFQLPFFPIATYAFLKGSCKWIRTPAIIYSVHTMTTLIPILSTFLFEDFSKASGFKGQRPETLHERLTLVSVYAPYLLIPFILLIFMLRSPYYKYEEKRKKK
Summary of the method: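 Membranes from transfected HEK-293 cells incubated with 10 nM [3H]-DTG in 50 mM Tris-HCl pH 8.0, 120 min at 25 °C; non-specific binding defined with 10 μM haloperidol. Bound radioactivity counted after filtration; compounds tested as % inhibition at 1 or 10 μM or at five concentrations for Ki.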

`CC1(C)CN(C(=O)N2CC3(CCN(Cc4ccccc4)CC3)C2)c2cccnc21` [Example 159, (7-benzyl-2,7-diazaspiro[3.5]nonan-2-yl)(3,3-dimethyl-2,3-dihydro-1H-pyrrolo[3,2-b]pyridin-1-yl)methanone] gave a Ki (human σ1 receptor) of less than 0.1 µM and a Ki (human σ2/TMEM97 receptor) of 0.1 to 0.5 µM.
Work on `Cc1ccc2c(n1)C(C)(C)CN2C(=O)N1CCC2(CCN(Cc3ccccc3F)CC2)CC1` [Example 160, (9-(2-fluorobenzyl)-3,9-diazaspiro[5.5]undecan-3-yl)(3,3,5-trimethyl-2,3-dihydro-1H-pyrrolo[3,2-b]pyridin-1-yl)methanone] yielded a Ki (human σ1 receptor) of less than 0.1 µM and a Ki (human σ2/TMEM97 receptor) of less than 0.1 µM.
Work on `Cc1ccc2c(n1)C(C)(C)CN2C(=O)N1CCC2(CCN(CC3CCOCC3)CC2)CC1` [Example 161, (9-((tetrahydro-2H-pyran-4-yl)methyl)-3,9-diazaspiro[5.5]undecan-3-yl)(3,3,5-trimethyl-2,3-dihydro-1H-pyrrolo[3,2-b]pyridin-1-yl)methanone] yielded a Ki (human σ1 receptor) of 0.1 to 0.5 µM and a Ki (human σ2/TMEM97 receptor) of less than 0.1 µM.
Molecule `Cc1ccc2c(n1)C(C)(C)CN2C(=O)N1CCC2(CCN(Cc3ccc(F)c(C#N)c3)CC2)CC1` [Example 162, 2-fluoro-5-((9-(3,3,5-trimethyl-2,3-dihydro-1H-pyrrolo[3,2-b]pyridine-1-carbonyl)-3,9-diazaspiro[5.5]undecan-3-yl)methyl)benzonitrile] has a Ki (human σ1 receptor) of 0.1 to 0.5 µM and a Ki (human σ2/TMEM97 receptor) of 0.1 to 0.5 µM.
`Cc1ccc2c(n1)C(C)(C)CN2C(=O)N1CCC2(CCN(Cc3ccc(C#N)c(F)c3)CC2)CC1` [Example 163, 2-fluoro-4-((9-(3,3,5-trimethyl-2,3-dihydro-1H-pyrrolo[3,2-b]pyridine-1-carbonyl)-3,9-diazaspiro[5.5]undecan-3-yl)methyl)benzonitrile] showed a Ki (human σ1 receptor) of 0.1 to 0.5 µM and a Ki (human σ2/TMEM97 receptor) of 0.1 to 0.5 µM.
`CC1(C)CN(C(=O)N2CCC3(CCN(Cc4cc(F)ccc4F)CC3)CC2)c2cccnc21` [Example 164, (9-(2,5-difluorobenzyl)-3,9-diazaspiro[5.5]undecan-3-yl)(3,3-dimethyl-2,3-dihydro-1H-pyrrolo[3,2-b]pyridin-1-yl)methanone] gave a Ki (human σ1 receptor) of less than 0.1 µM and a Ki (human σ2/TMEM97 receptor) of less than 0.1 µM.
Molecule `CC1(C)CN(C(=O)N2CCC3(CCN(Cc4ccc(C#N)cc4F)CC3)CC2)c2cccnc21` [Example 165, 4-((9-(3,3-dimethyl-2,3-dihydro-1H-pyrrolo[3,2-b]pyridine-1-carbonyl)-3,9-diazaspiro[5.5]undecan-3-yl)methyl)-3-fluorobenzonitrile] has a Ki (human σ1 receptor) of less than 0.1 µM and a Ki (human σ2/TMEM97 receptor) of less than 0.1 µM.
`CC1(C)CN(C(=O)N2CCC3(CCN(CC4CCOCC4)CC3)CC2)c2cccnc21` [Example 166, (3,3-dimethyl-2,3-dihydro-1H-pyrrolo[3,2-b]pyridin-1-yl)(9-((tetrahydro-2H-pyran-4-yl)methyl)-3,9-diazaspiro[5.5]undecan-3-yl)methanone] showed a Ki (human σ1 receptor) of 0.1 to 0.5 µM and a Ki (human σ2/TMEM97 receptor) of less than 0.1 µM.
For `CC1(C)CN(C(=O)N2CCC3(CCN(Cc4cc(C#N)c(F)cc4F)CC3)CC2)c2cccnc21` [Example 167, 5-((9-(3,3-dimethyl-2,3-dihydro-1H-pyrrolo[3,2-b]pyridine-1-carbonyl)-3,9-diazaspiro[5.5]undecan-3-yl)methyl)-2,4-difluorobenzonitrile], the Ki (human σ1 receptor) was less than 0.1 µM and the Ki (human σ2/TMEM97 receptor) was less than 0.1 µM.
Work on `Cc1ccc2c(n1)C(C)(C)CN2C(=O)[C@H]1CC[C@H](N(C)Cc2cc(F)cc(F)c2)CC1` [Example 168, ((1r,4r)-4-((3,5-difluorobenzyl)(methyl)amino)cyclohexyl)(3,3,5-trimethyl-2,3-dihydro-1H-pyrrolo[3,2-b]pyridin-1-yl)methanone] yielded a Ki (human σ1 receptor) of less than 0.1 µM and a Ki (human σ2/TMEM97 receptor) of less than 0.1 µM.
`Cc1ccc2c(n1)C(C)(C)CN2C(=O)[C@H]1CC[C@H](N(C)Cc2cccc(F)c2)CC1` [Example 169, ((1r,4r)-4-((3-fluorobenzyl)(methyl)amino)cyclohexyl)(3,3,5-trimethyl-2,3-dihydro-1H-pyrrolo[3,2-b]pyridin-1-yl)methanone] showed a Ki (human σ1 receptor) of less than 0.1 µM and a Ki (human σ2/TMEM97 receptor) of less than 0.1 µM.
